This data set relates to HT29. As to conditions: 72 h, relative to DMSO, 10 µM. The gist of the method: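 Cells were exposed to drug for 72 h, then to WST-1 for 2 h at 37 °C, and absorbance was read at 450 nm as viability against DMSO treatment. In the screen, each compound was applied at 10 µM.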

Each structure is given as a SMILES string. Counter-ions that a name gives are not always drawn. Like-named read-outs stand apart in the source and are kept apart here.

With `CCOC(=O)[C@@H](N)Cc1ccc(-c2cc(O[C@H](c3ccc(Cl)cc3-n3ccc(C)n3)C(F)(F)F)nc(N)n2)cc1` [Telotristat Etiprate (LX 1606 Hippurate)], the “Relative cell viability (%)” value was found to be 86.05%. For `CCOC(=O)[C@H](CCc1ccccc1)N[C@H]1CS[C@H](c2cccs2)CN(CC(=O)O)C1=O` [Temocapril HCl], the “Relative cell viability (%)” value was 117.3%.

`Cn1nnc2c(C(N)=O)ncn2c1=O` [Temozolomide]: the “Relative cell viability (%)” value stood at 86.76%.

In the case of `COc1cc([C@@H]2c3cc4c(cc3[C@@H](O[C@@H]3O[C@@H]5CO[C@@H](c6cccs6)O[C@H]5[C@H](O)[C@H]3O)[C@H]3COC(=O)[C@H]23)OCO4)cc(OC)c1O` [Teniposide], the “Relative cell viability (%)” value is 34.75%.

For `CC(C)OC(=O)[C@H](C)N[P@](=O)(CO[C@H](C)Cn1cnc2c(N)ncnc21)Oc1ccccc1` [Tenofovir Alafenamide (GS-7340)], the “Relative cell viability (%)” value was determined as 125.2%. The same measure, in the same setting: the same measure for `CN1CCC(COc2cnc(-c3cccc(Cn4nc(-c5cccc(C#N)c5)ccc4=O)c3)nc2)CC1` [Tepotinib (EMD 1214063)]: 11.11%.

As to `COc1cc2nc(N3CCN(C(=O)C4CCCO4)CC3)nc(N)c2cc1OC` (stereo not drawn) [Terazosin HCl], the “Relative cell viability (%)” value (Relative cell viability (%)) turned out to be 142.1%.

Turning to `COc1cc2nc(N3CCN(C(=O)C4CCCO4)CC3)nc(N)c2cc1OC` (stereo not drawn) [Terazosin], for the setting “Relative cell viability (%)”, the “Relative cell viability (%)” value is 88.03%. As for `C/C(O)=C(\C#N)C(=O)Nc1ccc(C(F)(F)F)cc1` [Teriflunomide], the “Relative cell viability (%)” value is on record as 75.76%. Same read-out and setting: the same measure for `c1ccc2[nH]c(-c3cscn3)nc2c1` [Thiabendazole]: 70.34%; for `O=c1sn(-c2cccc3ccccc23)c(=O)n1Cc1ccccc1` [Tideglusib]: 51.94%; for `Clc1ccc(C(Cn2ccnc2)OCc2ccsc2Cl)c(Cl)c1` (stereo not drawn) [Tioconazole]: 135.7%. Still for that read-out and setting: in the case of `CC(S)C(=O)NCC(=O)O` (stereo not drawn) [Tiopronin] it was 149.2%; in that of `O=c1oc2cc(O)ccc2s1` [Tioxolone], 114.6%; in that of `O=C(O)Cc1cc(I)c(Oc2ccc(O)c(I)c2)c(I)c1` [Tiratricol], 83.03%. For `O=C1NC(=O)[C@@H](c2cn3c4c(cccc24)CCC3)[C@@H]1c1c[nH]c2ccccc12` [Tivantinib (ARQ 197)], the “Relative cell viability (%)” value stood at 27.18%.

Consider `C[C@@H]1CCN(C(=O)CC#N)C[C@@H]1N(C)c1ncnc2[nH]ccc12` [Tofacitinib (CP-690550) Citrate], for which the “Relative cell viability (%)” value (Relative cell viability (%)) was 115%. As for `C[C@@H]1CCN(C(=O)CC#N)C[C@@H]1N(C)c1ncnc2[nH]ccc12` [Tofacitinib (CP-690550,Tasocitinib)], under “Relative cell viability (%)”, the “Relative cell viability (%)” value is 51.94%. As for `CCCCNC(=O)NS(=O)(=O)c1ccc(C)cc1` [Tolbutamide], the “Relative cell viability (%)” value was 106.1%. On the same count and under the same terms, the same measure for `Cc1c(Cl)cccc1Nc1ccccc1C(=O)O` [Tolfenamic Acid]: 166.2%; for `Cc1cccc(N(C)C(=S)Oc2ccc3ccccc3c2)c1` [Tolnaftate]: 126.1%; for `Cc1ccc(C(=O)C(C)CN2CCCCC2)cc1` (stereo not drawn) [Tolperisone HCl]: 89.39%. The same measure, in the same setting: the same measure for `Cc1ccccc1C(=O)Nc1ccc(C(=O)N2CCCC(O)c3cc(Cl)ccc32)c(C)c1` (stereo not drawn) [Tolvaptan]: 54.85%. Same read-out and setting: the same measure for `CC[C@@]1(O)C(=O)OCc2c1cc1n(c2=O)Cc2cc3c(CN(C)C)c(O)ccc3nc2-1` [Topotecan HCl]: 16.67%; for `CN(C)CCOc1ccc(/C(=C(/CCCl)c2ccccc2)c2ccccc2)cc1` [Toremifene Citrate]: 34.75%.

For `CC(=O)Nc1cccc(-n2c(=O)n(C3CC3)c(=O)c3c(Nc4ccc(I)cc4F)n(C)c(=O)c(C)c32)c1` [Trametinib (GSK1120212)], the “Relative cell viability (%)” value is listed as 35.92%. On the same count and under the same terms, in the case of `Cn1c(=O)cc(N2CCC[C@@H](N)C2)n(Cc2cc(F)ccc2C#N)c1=O` [Trelagliptin] it was 63.68%; in that of `C[C@]12C=CC(=O)C=C1CC[C@H]1[C@@H]3C[C@@H](O)[C@](O)(C(=O)CO)[C@@]3(C)C[C@H](O)[C@@]12F` [Triamcinolone], 171.8%. Consider `O=c1[nH]c(=O)n([C@H]2C[C@H](O)[C@@H](CO)O2)cc1C(F)(F)F` [Trifluridine], for which the “Relative cell viability (%)” value is 53.81%. Same read-out and setting: in the case of `CCC(COC(=O)c1cc(OC)c(OC)c(OC)c1)(c1ccccc1)N(C)C` (stereo not drawn) [Trimebutine] it was 107.3%. With `NC(CO)(CO)CO` [Trometamol], the “Relative cell viability (%)” value is 73.94%.

Consider `CCN(Cc1ccncc1)C(=O)C(CO)c1ccccc1` (stereo not drawn) [Tropicamide], for which the “Relative cell viability (%)” value stood at 144.5%. In the case of `CN1[C@@H]2CC[C@H]1C[C@@H](OC(=O)c1c[nH]c3ccccc13)C2` [Tropisetron], the “Relative cell viability (%)” value is reported as 115.5%. The same measure, in the same setting: in the case of `CC(C)Nc1cc(-c2c[nH]c(C(=O)N[C@H](CO)c3cccc(Cl)c3)c2)c(Cl)cn1` [Ulixertinib (BVD-523, VRT752271)] it was 30.34%.

On to `Cn1ncc(Cl)c1-c1cc(C(=O)N[C@H](CN)Cc2ccc(F)c(F)c2)oc1Cl` [Uprosertib (GSK2141795)], for which the “Relative cell viability (%)” value came to 4.701%. Regarding `O=c1cc[nH]c(=O)[nH]1` [Uracil], the “Relative cell viability (%)” value amounted to 73.94%. For the molecule `COc1ccccc1N1CCN(CCCNc2cc(=O)n(C)c(=O)n2C)CC1` [Urapidil HCl], the “Relative cell viability (%)” value is recorded as 222.9%. Turning to `O=c1ccn([C@@H]2O[C@H](CO)[C@@H](O)[C@H]2O)c(=O)[nH]1` [Uridine], the “Relative cell viability (%)” value is 222.2%. With `CC(C)[C@H](N)C(=O)OCCOCn1cnc2c(=O)[nH]c(N)nc21` [Valaciclovir HCl], the “Relative cell viability (%)” value is 85.59%. On the same count and under the same terms, in the case of `C=C[C@]1(C)C[C@@H](OC(=O)CSC(C)(C)CNC(=O)[C@H](N)C(C)C)[C@]2(C)[C@H](C)CC[C@]3(CCC(=O)[C@H]32)[C@@H](C)[C@@H]1O` [Valnemulin HCl] it was 68.48%; in that of `CCCCC(=O)N(Cc1ccc(-c2ccccc2-c2nnn[nH]2)cc1)[C@H](C(=O)O)C(C)C` [Valsartan], 83.05%. Turning to `C[C@@H]1COC(Nc2ccc3ncnc(Nc4ccc(OCc5nccs5)c(Cl)c4)c3c2)=N1` [Varlitinib], the “Relative cell viability (%)” value stood at 111.6%. With `CCCS(=O)(=O)Nc1ccc(F)c(C(=O)c2c[nH]c3ncc(-c4ccc(Cl)cc4)cc23)c1F` [Vemurafenib (PLX4032, RG7204)], the “Relative cell viability (%)” value was determined as 36.92%. Same read-out and setting: in the case of `Nc1ncnc2c1ncn2[C@@H]1O[C@H](CO)[C@@H](O)[C@@H]1O` [Vidarabine] it was 74.15%; in that of `COc1cccc(-c2ccc(NC(=O)C3=C(C(=O)O)CCC3)c(F)c2)c1` [Vidofludimus], 104.7%. On to `N#C[C@@H]1CCCN1C(=O)CNC12CC3CC(CC(O)(C3)C1)C2` [Vildagliptin (LAF-237)], for which the “Relative cell viability (%)” value is listed as 108.7%.

For `CC[C@]1(O)C[C@H]2CN(CCc3c([nH]c4ccccc34)[C@@](C(=O)OC)(c3cc4c(cc3OC)N(C=O)[C@H]3[C@@](O)(C(=O)OC)[C@H](OC(C)=O)[C@]5(CC)C=CCN6CC[C@]43[C@@H]65)C2)C1` [Vincristine], the “Relative cell viability (%)” value turned out to be 22.9%. On to `CCC1=C[C@@H]2CN(C1)Cc1c([nH]c3ccccc13)[C@@](C(=O)OC)(c1cc3c(cc1OC)N(C)[C@H]1[C@@](O)(C(=O)OC)[C@H](OC(C)=O)[C@]4(CC)C=CCN5CC[C@]31[C@@H]54)C2` [Vinorelbine Tartrate], for which the “Relative cell viability (%)” value was 15.76%. With `CCOC(=O)C1=C[C@]2(CC)CCCN3CCc4c(n1c1ccccc41)[C@@H]32` [Vinpocetine], the “Relative cell viability (%)” value turned out to be 107.3%. On the same count and under the same terms, the same measure for `CC[C@@H]1C(=O)N(C)c2cnc(Nc3ccc(C(=O)N[C@H]4CC[C@H](N5CCN(CC6CC6)CC5)CC4)cc3OC)nc2N1C(C)C` [Volasertib (BI 6727)]: 88.41%; for `CCn1c(=O)c(-c2cc[nH]n2)cc2c(C)nc(N)nc21` [Voxtalisib (XL765, SAR245409)]: 31.62%; for `O=C[C@H](O)[C@@H](O)[C@H](O)CO` [Xylose]: 114.9%. In the case of `CC(C(=O)O)c1ccc2c(c1)CC(=O)c1ccccc1S2` (stereo not drawn) [Zaltoprofen], the “Relative cell viability (%)” value worked out at 88.35%.

As to `O=C1CCc2ccc(OCCCCN3CCN(c4cccc(Cl)c4Cl)CC3)cc2N1` [aripiprazole], the “Relative cell viability (%)” value is listed as 49.03%.
